Data as given in US5358712A, “Radiopharmaceutical agents for the detection of Alzheimer's disease” (Regents of the University of Minnesota, priority 1993, dated 1994).

Legend:
[1] = Blocking experiments: inhibition of radiotracer accumulation in the rat by coadministered compound; assay type: in vivo, rat (male Wistar); details: rat, iv, rat, iv, 60 min
Protocol: *Animals in group 1 received an iv injection of (+)4-[^125 l]HIPP
only. For groups 2, 3, and 4, the radiotracer was coadministered with the
hydrochlorides of (+)7 (0.53 mg/kg), (-)7 (0.53 mg/kg) and vesamicol (0.3
Four groups of male Wistar rats (n=3) were used in these experiments. All animals received an iv dose of 8-10 μCi of the radiotracer in 0.1 ml of 50% aq. ethanol. Additionally, in groups 2, 3 and 4, the radiotracer was coadministered with (+)-HBrPP.HCl(1.3 μmol/kg), (-)-HBrPP.HCl(1.3 μmol/kg) and (dl)-vesamicol hydrochloride (1.1 μmol/kg), respectively. At 60 min. post-injection, blood was collected by cardiac puncture and the animals sacrificed as described above. The data was analyzed as outlined above.
NOTE: The dose of radiotracer injected was 5-7 mCi. Group I was the
control, injected with the radiotracer only. Group II included the
simultaneous injection of "cold"(dl)3-HIPP (HCl) (0.53 mg/kg). Group III
included the simultaneous injection of (dl) vesamicol (HCl) (0.31 mg/kg).
All rats were sacrificed at one hour postinjection.
NOTE: Group I was the control, injected with the radiotracer only. Group
II included the simultaneous injection of "cold"(dl)3-HIPP (HCl) (0.53
mg/kg). Group III included the simultaneous injection of (dl) vesamicol
hydrochloride (0.31 mg/kg). The dose of radiotracer was 8-9 μCi. All
rats were sacrificed at one hour postinjection.
NOTE: Group I received (+)[^125 l]13 only. Group II received the (+)
radiotracer coinjected with 0.31 mg/kg (dl)vesamicol hydrochloride. Group
III received (-)[^125 l]13 only. Group IV received the (-) radiotrace
coinjected with 0.31 mg/kg (dl)vesamicol hydrochloride. All animals were
sacrificed at one hour postinjection. The dose of radiotracer injected pe

[2] = Tissue distribution (biodistribution) of radioiodinated compound in the rat; details: rat, iv; for tissue uptake at 1 h: 60 min; for tissue uptake at 3 h: 180 min
[3] = kidney, radioactivity in kidney
[4] = muscle, radioactivity in muscle
[5] = spleen, radioactivity in spleen

`OC(Cc1cccc([125I])c1)CN1CCC(c2ccccc2)CC1` (single isomer, unassigned; (+)) [(+)-[^125 l]12, 2-Hydroxyl-3-(3-iodophenyl)-1-[1-(4-phenylpiperidinyl)]propane] gave a tissue uptake at 1 h ([1]; blood, + (dl)-vesamicol HCl 0.3 (Table 3) or 0.31 mg/kg, read-out: radioactivity in blood) of 0.12 %ID/g, a tissue uptake at 1 h ([1]; blood, + cold (dl)3-HIPP HCl 0.53 mg/kg, read-out: radioactivity in blood) of 0.13 %ID/g and a tissue uptake at 1 h ([1]; blood, radiotracer only (control), read-out: radioactivity in blood) of 0.09 %ID/g. It also gave a tissue uptake at 1 h ([1]; brain, + (dl)-vesamicol HCl 0.3 (Table 3) or 0.31 mg/kg, read-out: radioactivity in brain) of 0.26 %ID/g, a tissue uptake at 1 h ([1]; brain, + cold (dl)3-HIPP HCl 0.53 mg/kg, read-out: radioactivity in brain) of 0.24 %ID/g and a tissue uptake at 1 h ([1]; brain, radiotracer only (control), read-out: radioactivity in brain) of 0.76 %ID/g. It also gave a tissue uptake at 1 h ([1]; heart, + (dl)-vesamicol HCl 0.3 (Table 3) or 0.31 mg/kg, read-out: radioactivity in heart) of 0.13 %ID/g, a tissue uptake at 1 h ([1]; heart, + cold (dl)3-HIPP HCl 0.53 mg/kg, read-out: radioactivity in heart) of 0.15 %ID/g and a tissue uptake at 1 h ([1]; heart, radiotracer only (control), read-out: radioactivity in heart) of 0.36 %ID/g. It also gave a tissue uptake at 1 h ([1]; kidney, + (dl)-vesamicol HCl 0.3 (Table 3) or 0.31 mg/kg, read-out: radioactivity in kidney) of 0.55 %ID/g, a tissue uptake at 1 h ([1]; kidney, + cold (dl)3-HIPP HCl 0.53 mg/kg, read-out: radioactivity in kidney) of 0.62 %ID/g and a tissue uptake at 1 h ([1]; kidney, radiotracer only (control), read-out: radioactivity in kidney) of 1.48 %ID/g. For the same molecule, the tissue uptake at 1 h ([1]; liver, + (dl)-vesamicol HCl 0.3 (Table 3) or 0.31 mg/kg, read-out: radioactivity in liver) was 0.87 %ID/g, the tissue uptake at 1 h ([1]; liver, + cold (dl)3-HIPP HCl 0.53 mg/kg, read-out: radioactivity in liver) was 0.71 %ID/g and the tissue uptake at 1 h ([1]; liver, radiotracer only (control), read-out: radioactivity in liver) was 0.86 %ID/g. It also gave a tissue uptake at 1 h ([1]; lung, + (dl)-vesamicol HCl 0.3 (Table 3) or 0.31 mg/kg, read-out: radioactivity in lung) of 0.71 %ID/g, a tissue uptake at 1 h ([1]; lung, + cold (dl)3-HIPP HCl 0.53 mg/kg, read-out: radioactivity in lung) of 0.92 %ID/g and a tissue uptake at 1 h ([1]; lung, radiotracer only (control), read-out: radioactivity in lung) of 1.52 %ID/g. For the same molecule, the tissue uptake at 1 h ([1]; muscle, + (dl)-vesamicol HCl 0.3 (Table 3) or 0.31 mg/kg, read-out: radioactivity in muscle) was 0.12 %ID/g, the tissue uptake at 1 h ([1]; muscle, + cold (dl)3-HIPP HCl 0.53 mg/kg, read-out: radioactivity in muscle) was 0.11 %ID/g and the tissue uptake at 1 h ([1]; muscle, radiotracer only (control), read-out: radioactivity in muscle) was 0.17 %ID/g. It also gave a tissue uptake at 1 h ([1]; spleen, + (dl)-vesamicol HCl 0.3 (Table 3) or 0.31 mg/kg, read-out: radioactivity in spleen) of 0.48 %ID/g, a tissue uptake at 1 h ([1]; spleen, + cold (dl)3-HIPP HCl 0.53 mg/kg, read-out: radioactivity in spleen) of 0.5 %ID/g and a tissue uptake at 1 h ([1]; spleen, radiotracer only (control), read-out: radioactivity in spleen) of 1.14 %ID/g. The tissue uptake at 5 min ([2]; blood, radioactivity in blood) was 0.08 %ID/g, the tissue uptake at 1 h ([2]; blood, radioactivity in blood) was 0.09 %ID/g and the tissue uptake at 3 h ([2]; blood, radioactivity in blood) was 0.08 %ID/g. The tissue uptake at 5 min ([2]; brain, radioactivity in brain) was 1.03 %ID/g, the tissue uptake at 1 h ([2]; brain, radioactivity in brain) was 0.82 %ID/g and the tissue uptake at 5 min ([2]; heart, radioactivity in heart) was 1.3 %ID/g. For the same molecule, the tissue uptake at 1 h ([2]; heart, radioactivity in heart) was 0.38 %ID/g, the tissue uptake at 3 h ([2]; heart, radioactivity in heart) was 0.16 %ID/g and the tissue uptake at 5 min [2, 3] was 2.55 %ID/g. For the same molecule, the tissue uptake at 1 h [2, 3] was 1.28 %ID/g, the tissue uptake at 3 h [2, 3] was 0.75 %ID/g and the tissue uptake at 5 min ([2]; liver, radioactivity in liver) was 1.17 %ID/g. The tissue uptake at 1 h ([2]; liver, radioactivity in liver) was 0.89 %ID/g, the tissue uptake at 3 h ([2]; liver, radioactivity in liver) was 0.51 %ID/g and the tissue uptake at 5 min ([2]; lung, radioactivity in lung) was 7.34 %ID/g. The tissue uptake at 1 h ([2]; lung, radioactivity in lung) was 1.42 %ID/g, the tissue uptake at 3 h ([2]; lung, radioactivity in lung) was 0.61 %ID/g and the tissue uptake at 5 min [2, 4] was 0.27 %ID/g. For the same molecule, the tissue uptake at 1 h [2, 4] was 0.16 %ID/g, the tissue uptake at 3 h [2, 4] was 0.12 %ID/g and the tissue uptake at 5 min [2, 5] was 0.5 %ID/g. It also gave a tissue uptake at 1 h [2, 5] of 1.12 %ID/g and a tissue uptake at 3 h [2, 5] of 0.66 %ID/g.
